Data published in the kinase profiling compilation of Christmann-Franck et al. (2016).

Assays:
Experiment in all cases: radiometric filter-binding kinase assay, Kinase HotSpot
Details in all cases: compound 0.5 µM; ATP 10 µM
MAP3K3 (human) = MAP3K3 (human) (UniProt Q99759)
PIM2 (human) = PIM2 (human) (UniProt Q9P1W9)
CAMK1D (human) = CAMK1D (human) (UniProt Q8IU85)
PRKD3 (human) = PRKD3 (human) (UniProt O94806)
CSNK2A2 (human) = CSNK2A2 (human) (UniProt P19784)
MAPK12 (human) = MAPK12 (human) (UniProt P53778)
RPS6KA6 KD1 KD2 (human) = RPS6KA6 KD1 KD2 (human) (UniProt Q9UK32)
DAPK3 (human) = DAPK3 (human) (UniProt O43293)
PRKCG (human) = PRKCG (human) (UniProt P05129)
CDK4 CCND3 (human) = CDK4 CCND3 (human) (UniProt P30281+P11802)
TEC (human) = TEC (human) (UniProt P42680)
SGK3 (human) = SGK3 (human) (UniProt Q96BR1)
MARK4 (human) = MARK4 (human) (UniProt Q96L34)
CSNK1G3 (human) = CSNK1G3 (human) (UniProt Q9Y6M4)
ADRBK2 (human) = ADRBK2 (human) (UniProt P35626)
STK11 (human) = STK11 (human) (UniProt Q15831)
STK24 (human) = STK24 (human) (UniProt Q9Y6E0)
DYRK1A (human) = DYRK1A (human) (UniProt Q13627)
CDC42BPA (human) = CDC42BPA (human) (UniProt Q5VT25)
NEK6 (human) = NEK6 (human) (UniProt Q9HC98)
NTRK1 (human) = NTRK1 (human) (UniProt P04629)
[1] = system: SGK1 (human), O00141 [S422D]
DYRK3 (human) = DYRK3 (human) (UniProt O43781)
GRK6 (human) = GRK6 (human) (UniProt P43250)
EPHA8 (human) = EPHA8 (human) (UniProt P29322)
CDK7 CCNH MNAT1 (human) = CDK7 CCNH MNAT1 (human) (UniProt P50613+P51948+P51946)
INSR (human) = INSR (human) (UniProt P06213)
CSNK1E (human) = CSNK1E (human) (UniProt P49674)
MAPK3 (human) = MAPK3 (human) (UniProt P27361)
SRC (human) = SRC (human) (UniProt P12931)
ABL2 (human) = ABL2 (human) (UniProt P42684)
STK16 (human) = STK16 (human) (UniProt O75716)
TAOK1 (human) = TAOK1 (human) (UniProt Q7L7X3)
EPHA5 (human) = EPHA5 (human) (UniProt P54756)
AKT3 (human) = AKT3 (human) (UniProt Q9Y243)
FGR (human) = FGR (human) (UniProt P09769)
MAPK11 (human) = MAPK11 (human) (UniProt Q15759)
WNK3 (human) = WNK3 (human) (UniProt Q9BYP7)
WEE1 (human) = WEE1 (human) (UniProt P30291)
CDK2 CCNE1 (human) = CDK2 CCNE1 (human) (UniProt P24941+P24864)
NTRK2 (human) = NTRK2 (human) (UniProt Q16620)
BLK (human) = BLK (human) (UniProt P51451)

WEE1 (human), sequence (P30291 whole entry, looked up): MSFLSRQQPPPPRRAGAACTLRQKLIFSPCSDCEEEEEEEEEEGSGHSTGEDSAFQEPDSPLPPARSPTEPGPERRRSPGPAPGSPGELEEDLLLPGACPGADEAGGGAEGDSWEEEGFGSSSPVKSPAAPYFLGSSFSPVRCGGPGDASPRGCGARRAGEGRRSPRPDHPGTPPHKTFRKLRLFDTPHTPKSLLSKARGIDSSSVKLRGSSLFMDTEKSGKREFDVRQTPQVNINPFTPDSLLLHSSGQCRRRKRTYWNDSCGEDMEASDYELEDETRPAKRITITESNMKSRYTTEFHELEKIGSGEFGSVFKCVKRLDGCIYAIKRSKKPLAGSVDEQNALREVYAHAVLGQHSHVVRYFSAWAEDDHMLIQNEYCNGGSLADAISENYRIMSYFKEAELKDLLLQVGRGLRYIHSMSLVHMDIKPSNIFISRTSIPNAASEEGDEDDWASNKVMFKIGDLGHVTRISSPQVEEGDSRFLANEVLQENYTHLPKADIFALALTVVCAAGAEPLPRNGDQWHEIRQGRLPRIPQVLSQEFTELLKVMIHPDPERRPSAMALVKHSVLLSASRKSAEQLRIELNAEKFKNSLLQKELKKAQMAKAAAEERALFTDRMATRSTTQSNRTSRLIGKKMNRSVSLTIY
INSR (human), sequence (P06213 whole entry, looked up): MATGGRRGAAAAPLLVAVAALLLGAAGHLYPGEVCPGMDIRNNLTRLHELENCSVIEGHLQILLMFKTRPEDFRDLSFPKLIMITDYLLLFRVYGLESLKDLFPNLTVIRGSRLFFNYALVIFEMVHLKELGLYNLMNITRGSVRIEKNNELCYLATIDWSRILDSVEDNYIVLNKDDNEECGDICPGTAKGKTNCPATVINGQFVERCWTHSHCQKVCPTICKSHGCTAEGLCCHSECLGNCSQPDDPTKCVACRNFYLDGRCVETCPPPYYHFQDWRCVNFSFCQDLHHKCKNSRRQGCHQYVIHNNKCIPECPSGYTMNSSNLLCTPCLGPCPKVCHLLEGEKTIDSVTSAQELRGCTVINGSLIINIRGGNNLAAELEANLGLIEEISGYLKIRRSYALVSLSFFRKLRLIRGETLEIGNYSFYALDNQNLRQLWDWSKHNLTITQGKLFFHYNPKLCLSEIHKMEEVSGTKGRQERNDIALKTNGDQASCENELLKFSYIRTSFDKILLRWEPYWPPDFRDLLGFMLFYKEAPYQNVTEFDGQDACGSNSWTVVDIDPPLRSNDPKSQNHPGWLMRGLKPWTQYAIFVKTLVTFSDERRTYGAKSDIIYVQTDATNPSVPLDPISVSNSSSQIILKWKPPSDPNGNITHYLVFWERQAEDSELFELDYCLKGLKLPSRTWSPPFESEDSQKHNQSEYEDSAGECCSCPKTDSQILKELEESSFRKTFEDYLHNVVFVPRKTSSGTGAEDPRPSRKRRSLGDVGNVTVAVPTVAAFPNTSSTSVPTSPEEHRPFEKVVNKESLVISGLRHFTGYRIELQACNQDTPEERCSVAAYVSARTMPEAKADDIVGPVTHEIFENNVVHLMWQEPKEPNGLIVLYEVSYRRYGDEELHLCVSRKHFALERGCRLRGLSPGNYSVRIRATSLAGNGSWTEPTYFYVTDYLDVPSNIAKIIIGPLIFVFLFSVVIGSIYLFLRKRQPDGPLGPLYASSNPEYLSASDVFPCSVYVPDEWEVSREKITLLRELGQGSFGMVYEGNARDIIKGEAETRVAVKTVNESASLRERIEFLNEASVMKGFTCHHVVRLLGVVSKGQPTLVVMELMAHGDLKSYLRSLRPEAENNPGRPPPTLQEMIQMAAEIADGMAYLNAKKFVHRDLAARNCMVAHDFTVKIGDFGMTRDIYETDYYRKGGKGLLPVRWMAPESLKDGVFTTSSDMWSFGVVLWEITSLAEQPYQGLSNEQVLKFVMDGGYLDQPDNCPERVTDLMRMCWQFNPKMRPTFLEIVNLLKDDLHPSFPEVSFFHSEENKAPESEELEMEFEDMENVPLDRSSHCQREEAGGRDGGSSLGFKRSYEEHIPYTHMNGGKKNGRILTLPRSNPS
DYRK3 (human), sequence (O43781 whole entry, looked up): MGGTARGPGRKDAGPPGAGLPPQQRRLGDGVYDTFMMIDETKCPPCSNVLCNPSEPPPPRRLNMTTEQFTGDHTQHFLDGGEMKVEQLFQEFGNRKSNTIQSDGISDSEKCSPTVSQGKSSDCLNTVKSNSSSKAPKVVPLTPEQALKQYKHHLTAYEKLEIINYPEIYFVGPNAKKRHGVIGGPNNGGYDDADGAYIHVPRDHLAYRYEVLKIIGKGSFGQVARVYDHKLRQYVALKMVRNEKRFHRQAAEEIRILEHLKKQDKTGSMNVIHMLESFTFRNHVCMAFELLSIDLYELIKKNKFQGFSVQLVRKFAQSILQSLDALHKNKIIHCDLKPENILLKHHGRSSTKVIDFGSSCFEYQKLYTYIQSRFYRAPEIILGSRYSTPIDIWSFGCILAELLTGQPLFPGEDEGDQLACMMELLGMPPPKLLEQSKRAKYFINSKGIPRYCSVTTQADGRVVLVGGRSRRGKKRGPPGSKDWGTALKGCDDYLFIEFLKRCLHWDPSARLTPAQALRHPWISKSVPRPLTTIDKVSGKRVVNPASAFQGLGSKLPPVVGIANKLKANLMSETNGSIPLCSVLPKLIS
CAMK1D (human), sequence (Q8IU85 whole entry, looked up): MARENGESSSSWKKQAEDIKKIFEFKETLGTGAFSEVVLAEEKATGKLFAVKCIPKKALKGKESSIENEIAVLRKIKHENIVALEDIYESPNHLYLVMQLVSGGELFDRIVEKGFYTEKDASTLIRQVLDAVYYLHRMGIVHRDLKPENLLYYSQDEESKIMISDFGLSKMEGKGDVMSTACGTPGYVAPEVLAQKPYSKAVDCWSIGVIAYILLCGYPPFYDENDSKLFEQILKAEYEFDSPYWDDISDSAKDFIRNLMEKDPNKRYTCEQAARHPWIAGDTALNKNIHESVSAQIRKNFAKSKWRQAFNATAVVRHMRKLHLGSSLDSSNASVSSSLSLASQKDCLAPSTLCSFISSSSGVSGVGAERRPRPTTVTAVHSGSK
ADRBK2 (human), sequence (P35626 whole entry, looked up): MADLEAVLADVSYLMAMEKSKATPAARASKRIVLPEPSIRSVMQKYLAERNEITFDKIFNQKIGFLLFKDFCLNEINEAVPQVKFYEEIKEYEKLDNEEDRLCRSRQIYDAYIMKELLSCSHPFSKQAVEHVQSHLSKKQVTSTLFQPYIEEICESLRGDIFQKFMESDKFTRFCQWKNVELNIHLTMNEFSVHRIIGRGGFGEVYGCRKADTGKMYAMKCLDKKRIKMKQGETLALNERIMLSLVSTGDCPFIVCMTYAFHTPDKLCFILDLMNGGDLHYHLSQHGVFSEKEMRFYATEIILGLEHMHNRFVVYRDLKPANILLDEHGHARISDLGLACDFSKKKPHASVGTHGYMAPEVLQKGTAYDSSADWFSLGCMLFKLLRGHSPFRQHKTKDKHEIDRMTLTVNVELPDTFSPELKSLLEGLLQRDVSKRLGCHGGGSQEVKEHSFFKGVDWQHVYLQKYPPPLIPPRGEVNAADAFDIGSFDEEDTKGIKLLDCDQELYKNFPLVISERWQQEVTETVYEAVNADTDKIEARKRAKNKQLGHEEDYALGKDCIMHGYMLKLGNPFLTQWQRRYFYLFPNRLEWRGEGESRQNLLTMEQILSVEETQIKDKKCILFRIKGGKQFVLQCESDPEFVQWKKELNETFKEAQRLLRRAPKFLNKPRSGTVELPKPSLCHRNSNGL
EPHA8 (human), sequence (P29322 whole entry, looked up): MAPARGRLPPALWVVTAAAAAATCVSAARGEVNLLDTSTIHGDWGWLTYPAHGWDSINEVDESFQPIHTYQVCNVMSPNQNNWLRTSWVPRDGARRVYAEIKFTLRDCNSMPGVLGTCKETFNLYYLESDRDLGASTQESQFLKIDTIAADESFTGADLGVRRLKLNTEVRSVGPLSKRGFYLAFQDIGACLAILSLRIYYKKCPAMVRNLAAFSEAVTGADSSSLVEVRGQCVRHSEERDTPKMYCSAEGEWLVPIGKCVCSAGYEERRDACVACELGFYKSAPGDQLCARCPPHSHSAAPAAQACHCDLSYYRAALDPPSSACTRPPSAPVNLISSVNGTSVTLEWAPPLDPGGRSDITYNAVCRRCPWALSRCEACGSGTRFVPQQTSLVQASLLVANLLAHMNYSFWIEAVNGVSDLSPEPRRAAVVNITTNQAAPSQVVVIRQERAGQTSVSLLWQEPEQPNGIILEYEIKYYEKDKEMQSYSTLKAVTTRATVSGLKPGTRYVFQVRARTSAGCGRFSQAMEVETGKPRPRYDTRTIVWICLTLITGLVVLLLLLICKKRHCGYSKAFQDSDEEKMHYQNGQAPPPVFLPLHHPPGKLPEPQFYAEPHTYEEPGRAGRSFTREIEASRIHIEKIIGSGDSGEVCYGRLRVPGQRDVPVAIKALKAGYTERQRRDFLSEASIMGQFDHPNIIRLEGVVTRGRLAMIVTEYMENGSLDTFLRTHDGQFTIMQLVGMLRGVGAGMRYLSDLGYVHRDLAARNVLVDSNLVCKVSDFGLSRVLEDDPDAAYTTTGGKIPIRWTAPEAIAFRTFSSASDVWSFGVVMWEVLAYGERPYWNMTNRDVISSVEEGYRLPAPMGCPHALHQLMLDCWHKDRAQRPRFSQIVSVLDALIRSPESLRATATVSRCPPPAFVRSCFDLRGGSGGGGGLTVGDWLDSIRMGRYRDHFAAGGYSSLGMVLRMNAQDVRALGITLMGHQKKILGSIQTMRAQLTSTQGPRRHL
MAPK11 (human), sequence (Q15759 whole entry, looked up): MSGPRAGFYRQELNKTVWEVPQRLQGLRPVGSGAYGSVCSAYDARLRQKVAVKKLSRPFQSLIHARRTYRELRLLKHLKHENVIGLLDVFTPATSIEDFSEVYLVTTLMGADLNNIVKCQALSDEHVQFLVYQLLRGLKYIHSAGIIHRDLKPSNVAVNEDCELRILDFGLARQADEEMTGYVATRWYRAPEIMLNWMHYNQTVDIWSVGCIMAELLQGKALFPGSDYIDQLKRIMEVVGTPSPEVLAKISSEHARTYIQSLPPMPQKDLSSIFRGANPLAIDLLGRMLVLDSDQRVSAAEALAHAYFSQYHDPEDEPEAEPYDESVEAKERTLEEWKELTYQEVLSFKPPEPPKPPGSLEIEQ

## O=C1NC(=O)c2cc(Nc3ccc(F)cc3)c(Nc3ccc(F)cc3)cc21
MAP3K3 (human)
  residual activity: 102%
PIM2 (human)
  residual activity: 98.6%
CAMK1D (human)
  residual activity: 78.1%
PRKD3 (human)
  residual activity: 96.7%
CSNK2A2 (human)
  residual activity: 104%
MAPK12 (human)
  residual activity: 93.6%
RPS6KA6 KD1 KD2 (human)
  residual activity: 97.4%
DAPK3 (human)
  residual activity: 101%
PRKCG (human)
  residual activity: 102%
CDK4 CCND3 (human)
  residual activity: 99%
TEC (human)
  residual activity: 102%
SGK3 (human)
  residual activity: 102%
MARK4 (human)
  residual activity: 98.2%
CSNK1G3 (human)
  residual activity: 90.7%
ADRBK2 (human)
  residual activity: 104%
STK11 (human)
  residual activity: 98.2%
STK24 (human)
  residual activity: 93.7%
DYRK1A (human)
  residual activity: 95.6%
CDC42BPA (human)
  residual activity: 92.3%
NEK6 (human)
  residual activity: 109%
NTRK1 (human)
  residual activity: 93.6%
[1]
  residual activity: 103%
DYRK3 (human)
  residual activity: 97.1%
GRK6 (human)
  residual activity: 98.7%
EPHA8 (human)
  residual activity: 95.5%
CDK7 CCNH MNAT1 (human)
  residual activity: 100%
INSR (human)
  residual activity: 98.3%
CSNK1E (human)
  residual activity: 98%
MAPK3 (human)
  residual activity: 86.1%
SRC (human)
  residual activity: 101%
ABL2 (human)
  residual activity: 89.6%
STK16 (human)
  residual activity: 85.8%
TAOK1 (human)
  residual activity: 90.3%
EPHA5 (human)
  residual activity: 95.4%
AKT3 (human)
  residual activity: 100%
FGR (human)
  residual activity: 96.3%
MAPK11 (human)
  residual activity: 94.6%
WNK3 (human)
  residual activity: 92.7%
WEE1 (human)
  residual activity: 99.6%
CDK2 CCNE1 (human)
  residual activity: 94.3%
NTRK2 (human)
  residual activity: 91.9%
BLK (human)
  residual activity: 94.3%

## O=c1c2ccccc2[nH]c(=S)n1CCN1CCC(=C(c2ccc(F)cc2)c2ccc(F)cc2)CC1
MAP3K3 (human)
  residual activity: 102%
PIM2 (human)
  residual activity: 129%
CAMK1D (human)
  residual activity: 96.8%
PRKD3 (human)
  residual activity: 101%
CSNK2A2 (human)
  residual activity: 97.7%
MAPK12 (human)
  residual activity: 99%
RPS6KA6 KD1 KD2 (human)
  residual activity: 101%
DAPK3 (human)
  residual activity: 102%
PRKCG (human)
  residual activity: 100%
CDK4 CCND3 (human)
  residual activity: 99%
TEC (human)
  residual activity: 110%
SGK3 (human)
  residual activity: 114%
MARK4 (human)
  residual activity: 102%
CSNK1G3 (human)
  residual activity: 97.1%
ADRBK2 (human)
  residual activity: 102%
STK11 (human)
  residual activity: 107%
STK24 (human)
  residual activity: 93.4%
DYRK1A (human)
  residual activity: 99.9%
CDC42BPA (human)
  residual activity: 97.7%
NEK6 (human)
  residual activity: 96.2%
NTRK1 (human)
  residual activity: 97%
[1]
  residual activity: 96%
DYRK3 (human)
  residual activity: 101%
GRK6 (human)
  residual activity: 111%
EPHA8 (human)
  residual activity: 102%
CDK7 CCNH MNAT1 (human)
  residual activity: 99.6%
INSR (human)
  residual activity: 94.3%
CSNK1E (human)
  residual activity: 100%
MAPK3 (human)
  residual activity: 105%
SRC (human)
  residual activity: 103%
ABL2 (human)
  residual activity: 103%
STK16 (human)
  residual activity: 104%
TAOK1 (human)
  residual activity: 101%
EPHA5 (human)
  residual activity: 112%
AKT3 (human)
  residual activity: 99.4%
FGR (human)
  residual activity: 95.4%
MAPK11 (human)
  residual activity: 99.3%
WNK3 (human)
  residual activity: 107%
WEE1 (human)
  residual activity: 93%
CDK2 CCNE1 (human)
  residual activity: 97.3%
NTRK2 (human)
  residual activity: 106%
BLK (human)
  residual activity: 102%
